# Measurements taken from PubChem BioAssay AID1918949 (Molecular Pharmacology Branch, DTP, NCI, 2023).
# “And” between values parts separate entries of the source, which are not always exact repeats. Identical values can stand only once.
# Test system: K24384-001-R-PDC complex spheroid viability
# Test: Anticancer human tumor K24384-001-R-PDC patient-derived pancreatic adenocarcinoma cell line growth inhibition
# Conditions: for viability, T/C: stronger effect = lower value
# From the text: Multicellular complex tumor spheroid response to LSD1 Inhibitor Iadademstat in combination with a variety of drugs and investigational agents in selected tumor cell lines
# The current study was undertaken to assess response to LSD1 inhibitors in combination with standard-of-care drugs and investigational agents in solid tumor complex spheroid models as well as in the K-562 leukemia. Complex spheroids include a stromal component modeled by human endothelial cells (HUVEC) and fibroblasts modeled by human mesenchymal stem cells (MSCs). The concentration ranges selected for each drug and investigational agent were based upon clinically achievable concentrations if the clinical Cmax of the agent was known.
# Compounds. The drugs and investigational agents used in this study are listed on Table 1. All of the agents used, including staurosporine (NSC755774) and gemcitabine (NSC613327), were obtained from the Developmental Therapeutics Program, NCI. FDA-approved anticancer drugs are available from the NCI at http://dtp.nci.nih.gov/branches/dscb/oncology_drugset_explanation.html. Drugs and investigational agents were >95% pure by proton nuclear magnetic resonance (NMR) and liquid chromatography/mass spectrometry (LC/MS). Stock solutions were prepared at 400x in DMSO, stored at -70 degrees C, and diluted in fresh medium prior to their use. The final concentration of DMSO in cell culture wells never exceeded 0.25% (v/v). The FDA-approved anticancer drug set is available from the Developmental Therapeutics Program at https://dtp.cancer.gov/organization/dscb/obtaining/available_plates.htm. All drugs and investigational agents were tested over a range starting from a high concentration at or near the clinical Cmax and decreasing in half-log increments. If the clinical Cmax for an agent had not been determined, the highest concentration tested was 10 microM.
# Cell Lines. The patient-derived cancer cell (PDC) lines: 292921-168-R-J2-PDC, K24384-001-R-PDC, and 521955-158-R2-J5-PDC pancreatic carcinomas, 556581-035-R-J1 ovarian carcinoma, 324938-238-R-J1-PDC, 855422-203-R-J1-PDC and 883617-216-R-J1-PDC urothelial bladder carcinomas, 743489-274-T-PDC renal cell carcinoma, 138582-R-J1 Merkel cell tumor, K60290-347-R-J1 and K57222-313-R-J1-PDC glioblastomas, 653999-131-R-J2-PDC, LG0703-F948-PDC, and 349418-098-R-PDC non-small cell lung carcinomas, 885512-296-R-J2-PDC, 171881-019-R-J1-PDC breast carcinomas and 186277-243-T-J2-PDC and 233499-124-R-J2-PDC colon carcinomas were obtained from the NCI Patient-Derived Models Repository (PDMR, https://pdmr.cancer.gov). The established cell lines NCI/ADR-RES (RRID:CVCL_14520 and OVCAR-5 (RRID:CVCL_1628) ovarian carcinomas, 786-O (RRID:CVCL_1051) and A498 (RRID:CVCL_A498) renal cell carcinoma, NCI-H211 (ATCC, cat. CRL-5824; RRID:CVCL_1529), NCI-H196 (ATCC, cat. CRL-5823, RRID:CVCL_1509), SW 1271 (ATCC, cat. CRL-2177, RRID:CVCL_1716) and NCI-H1876 (ATCC, cat. CRL-5902, RRID:CVCL_1503) small cell lung carcinomas, MDA-MB-231 (RRID:CVCL_0062) and MDA-MB-468 (RRID:CVCL_0419)breast carcinomas (10-12). Pooled donor human umbilical vein endothelial cells (HUVEC, Lonza, cat. CC-2519) and human mesenchymal stem cells (hMSC, Lonza, cat. PT-2501) were purchased from Lonza (Walkersville, MD).
# Cell Culture. All cells were maintained in an incubator at 37 degrees C and 5% CO2 with 95% humidity. The PDC lines were cultured according to standard operating procedures established by the NCI PDMR (https://pdmr.cancer.gov). Briefly all PDCs were thawed and cultured in Matrigel-coated flasks prepared with a working solution of 1X Ham's F-12 nutrient mix, without supplementation (Invitrogen, Waltham, MA, cat. 11765054), 100 U/mL penicillin-streptomycin (Invitrogen, cat. 15140122), and 2.5% Matrigel (Corning Inc., Corning, NY, cat. 354248) for the first three passages. […]
# [1] = curve of first compound, second compound 0.1 µM
# [2] = curve of first compound, second compound 0.316 µM
# [3] = curve of first compound, second compound 1 µM
# [4] = curve of first compound, second compound 3.16 µM
# [5] = curve of first compound, second compound 10 µM
# 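Also: spheroids exposed to agents for seven days before luminescence viability reading.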
# 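For viability, T/C in this document: 100% = DMSO vehicle control viability.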
smiles,measurement,setting,value
O=C(C=Cc1cccc(S(=O)(=O)Nc2ccccc2)c1)NO + NC1CC1c1ccc(-c2cccc(O)c2)cc1,IC50,[1],240 nM
same,IC50,[2],233 nM
same,IC50,[3],229 nM
same,IC50,[4],235 nM
same,IC50,[5],185 nM
same,"viability, T/C","second compound 0.1 µM, first compound 0.00949 µM",105%
same,"viability, T/C","second compound 0.1 µM, first compound 0.03 µM",111%
same,"viability, T/C","second compound 0.1 µM, first compound 0.0949 µM",95.5%
same,"viability, T/C","second compound 0.1 µM, first compound 0.3 µM",39.3%
same,"viability, T/C","second compound 0.1 µM, first compound 0.949 µM",3.97%
same,"viability, T/C","second compound 0.1 µM, first compound 3 µM",2.49%
same,"viability, T/C","second compound 0.316 µM, first compound 0.00949 µM",90%
same,"viability, T/C","second compound 0.316 µM, first compound 0.03 µM",108%
same,"viability, T/C","second compound 0.316 µM, first compound 0.0949 µM",117%
same,"viability, T/C","second compound 0.316 µM, first compound 0.3 µM",34.4%
same,"viability, T/C","second compound 0.316 µM, first compound 0.949 µM",4.35%
same,"viability, T/C","second compound 0.316 µM, first compound 3 µM",1.43%
same,"viability, T/C","second compound 1 µM, first compound 0.00949 µM",80.9%
same,"viability, T/C","second compound 1 µM, first compound 0.03 µM",113%
same,"viability, T/C","second compound 1 µM, first compound 0.0949 µM",98.1%
same,"viability, T/C","second compound 1 µM, first compound 0.3 µM",35.6%
same,"viability, T/C","second compound 1 µM, first compound 0.949 µM",5.51%
same,"viability, T/C","second compound 1 µM, first compound 3 µM",0.1%
same,"viability, T/C","second compound 3.16 µM, first compound 0.00949 µM",85%
same,"viability, T/C","second compound 3.16 µM, first compound 0.03 µM",124%
same,"viability, T/C","second compound 3.16 µM, first compound 0.0949 µM",103%
same,"viability, T/C","second compound 3.16 µM, first compound 0.3 µM",35.5%
same,"viability, T/C","second compound 3.16 µM, first compound 0.949 µM",4.17%
same,"viability, T/C","second compound 3.16 µM, first compound 3 µM",0.1%
same,"viability, T/C","second compound 10 µM, first compound 0.00949 µM",81.1%
same,"viability, T/C","second compound 10 µM, first compound 0.03 µM",114%
same,"viability, T/C","second compound 10 µM, first compound 0.0949 µM",70.7%
same,"viability, T/C","second compound 10 µM, first compound 0.3 µM",32.7%
same,"viability, T/C","second compound 10 µM, first compound 0.949 µM",5.8%
same,"viability, T/C","second compound 10 µM, first compound 3 µM",0.18%
O=C(C=Cn1cnc(-c2cc(C(F)(F)F)cc(C(F)(F)F)c2)n1)NNc1cnccn1 + NC1CC1c1ccc(-c2cccc(O)c2)cc1,IC50,[1],27.7 nM
same,IC50,[2],23.7 nM
same,IC50,[3],22.4 nM
same,IC50,[4],21.2 nM
same,IC50,[5],27.8 nM
same,"viability, T/C","second compound 0.1 µM, first compound 0.00316 µM",68.8%
same,"viability, T/C","second compound 0.1 µM, first compound 0.01 µM",72.3%
same,"viability, T/C","second compound 0.1 µM, first compound 0.0316 µM",46.5%
same,"viability, T/C","second compound 0.1 µM, first compound 0.1 µM",28.7%
same,"viability, T/C","second compound 0.1 µM, first compound 0.316 µM",24.7%
same,"viability, T/C","second compound 0.1 µM, first compound 1 µM",20.6%
same,"viability, T/C","second compound 0.316 µM, first compound 0.00316 µM",68.2%
same,"viability, T/C","second compound 0.316 µM, first compound 0.01 µM",72.8%
same,"viability, T/C","second compound 0.316 µM, first compound 0.0316 µM",42.7%
same,"viability, T/C","second compound 0.316 µM, first compound 0.1 µM",30.2%
same,"viability, T/C","second compound 0.316 µM, first compound 0.316 µM",21.6%
same,"viability, T/C","second compound 0.316 µM, first compound 1 µM",20.3%
same,"viability, T/C","second compound 1 µM, first compound 0.00316 µM",67.1%
same,"viability, T/C","second compound 1 µM, first compound 0.01 µM",77%
same,"viability, T/C","second compound 1 µM, first compound 0.0316 µM",40.6%
same,"viability, T/C","second compound 1 µM, first compound 0.1 µM",27.3%
same,"viability, T/C","second compound 1 µM, first compound 0.316 µM",22.7%
same,"viability, T/C","second compound 1 µM, first compound 1 µM",19%
same,"viability, T/C","second compound 3.16 µM, first compound 0.00316 µM",80.9%
same,"viability, T/C","second compound 3.16 µM, first compound 0.01 µM",65.4%
same,"viability, T/C","second compound 3.16 µM, first compound 0.0316 µM",42%
same,"viability, T/C","second compound 3.16 µM, first compound 0.1 µM",26%
same,"viability, T/C","second compound 3.16 µM, first compound 0.316 µM",21.7%
same,"viability, T/C","second compound 3.16 µM, first compound 1 µM",19.5%
same,"viability, T/C","second compound 10 µM, first compound 0.00316 µM",80.6%
same,"viability, T/C","second compound 10 µM, first compound 0.01 µM",81.9%
same,"viability, T/C","second compound 10 µM, first compound 0.0316 µM",46%
same,"viability, T/C","second compound 10 µM, first compound 0.1 µM",30.7%
same,"viability, T/C","second compound 10 µM, first compound 0.316 µM",26.7%
same,"viability, T/C","second compound 10 µM, first compound 1 µM",24.5%
O=C(c1cc(Cc2n[nH]c(=O)c3ccccc23)ccc1F)N1CCN(C(=O)C2CC2)CC1,"viability, T/C",compound 0.0316 µM,104% and 94.8%
same,"viability, T/C",compound 0.1 µM,97.3% and 91.9%
same,"viability, T/C",compound 0.316 µM,91% and 88.9%
same,"viability, T/C",compound 1 µM,85.5% and 81.4%
same,"viability, T/C",compound 3.16 µM,82.9% and 67.7%
same,"viability, T/C",compound 10 µM,84.4% and 70.1%
same,IC50,curve of compound,> 10000 nM
